This is an account of results in patent US9987256B2, “CFTR corrector for the treatment of genetic disorders affecting striated muscle” (UNIVERSITA' DEGLI STUDI DI PADOVA, priority 2012, dated 2018).

Substitutions are numbered along the chain they refer to. Where a SMILES comes first, the peptide text is derived from it. The star is where a group is joined. Cbz = O=C(OCc1ccccc1)*

Assay [1] concerns the target T1, R98H mutant of alpha-sarcoglycan (Homo sapiens, UniProt Q16586, R98H).
T1 construct: expressed in transfected cells; host or cells: HEK293
T1 sequence (Q16586 24-387 R98H): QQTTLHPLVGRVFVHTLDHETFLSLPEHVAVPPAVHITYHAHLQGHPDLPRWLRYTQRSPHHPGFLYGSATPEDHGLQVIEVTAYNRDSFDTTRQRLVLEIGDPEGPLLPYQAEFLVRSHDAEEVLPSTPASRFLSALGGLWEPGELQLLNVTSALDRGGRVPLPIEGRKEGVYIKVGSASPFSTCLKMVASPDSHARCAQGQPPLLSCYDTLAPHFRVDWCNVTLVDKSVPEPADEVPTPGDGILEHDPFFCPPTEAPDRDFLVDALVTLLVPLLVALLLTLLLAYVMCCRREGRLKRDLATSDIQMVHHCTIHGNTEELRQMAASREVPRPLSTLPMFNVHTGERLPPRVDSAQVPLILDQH
The experiment in a line: Western blot rescue of R98H mutant of alpha-sarcoglycan in HEK293 cell model. Format: cell-based. The note with it: FIG. 1; HEK293, 24 hours; C 5 μM, B 10 μM, E 10 μM, F 10 μM, A 2 μM, D 10 μM; relative to R98H cells treated with DMSO. On the procedure:
HEK293 cells expressing different α-SG mutants have been treated with the Compounds A, B, C, D, E, F, H, I, Q, R, S and T according to protocols developed in CF studies [Loo and Clarke 2011; Becq et al 2011, Pedemonte et al 2005; Wang et al 2006]. Concentration and time-dependent recovery of treated mutants have been evaluated by Western blotting. The proteasome inhibitor MG132, at the concentration of 10 μM, or DMSO at 1‰ concentration, have been used as positive and negative control, respectively.
In FIG. 1 the result obtained by treating cells expressing the R98H mutant of α-SG for 24 hours with Compound C 5 μM, Compound B 10 μM, Compound E 10 μM, Compound F 10 μM, Compound A 2 μM, Compound D 10 μM are shown. At the end of treatments, cells were lysed and total proteins resolved by SDS-PAGE. Western blotting has been performed by using α-SG specific antibody and β-actin specific antibody, used to normalize loaded proteins (in FIG. 1, upper panel, a representative experiment is shown). The expression of α-SG in different samples has been determined by densitometric analysis of the western blotting experiments and indicated as percentage of the protein present in cells expressing the R98H mutant treated with DMSO (negative control).
In FIG. 4 the result obtained by treating cells expressing the R98H mutant of α-SG for 24 hours with either Compound H 15 μM, Compound I 10 μM, Compound T 15 μM, Compound A 2 μM, or DMSO at 1‰ concentration, used as negative control, are shown. Cells expressing the wild type form of α-sarcoglycan have been used for comparison. At the end of treatments, cells were lysed and total proteins resolved by SDS-PAGE. Western blotting has been performed by using α-SG specific antibody and β-actin specific antibody, used to normalize loaded proteins (in upper panel of FIG. 4, a representative experiment is shown). The expression of α-SG in different samples has been determined by densitometric analysis of the western blotting experiments and indicated as percentage of the protein present in cells expressing the wild type form of α-sarcoglycan. […] The compounds tested induced the recovery of the R98H mutant to levels that in some cases were even greater than those present in HEK cells expressing the wild type protein.
(§1) In FIG. 5 the result obtained by treating cells expressing the R98H mutant of α-SG for 24 hours with either increasing concentration of Compound R (1, 2.5, 5 μM) or DMSO at 1‰ concentration, used as negative control, are shown. Cells expressing the wild type form of α-sarcoglycan have been used for comparison. At the end of treatments, cells were lysed and total proteins resolved by SDS-PAGE. Western blotting has been performed by using α-SG specific antibody and β-actin specific antibody, used to normalize loaded proteins (in upper panel of FIG. 5, a representative experiment is shown). The expression of α-SG in different samples has been determined by densitometric analysis of western blotting experiments and indicated as percentage of the protein present in cells expressing the wild type form of α-sarcoglycan.
as §1, with “6” for “5”, “Q (5, 10 μM), increasing concentration of Compound S (10, 15” for “R (1, 2.5, 5”, “1% o” for “1‰”, “6,” for “5,”

For a further assay, the target named is T2, R164H mutant of SERCA1 (Bos taurus, UniProt Q0VCY0, R164H).
T2 construct: expressed in transfected cells; host or cells: HEK 293
T2 sequence (Q0VCY0 whole entry R164H): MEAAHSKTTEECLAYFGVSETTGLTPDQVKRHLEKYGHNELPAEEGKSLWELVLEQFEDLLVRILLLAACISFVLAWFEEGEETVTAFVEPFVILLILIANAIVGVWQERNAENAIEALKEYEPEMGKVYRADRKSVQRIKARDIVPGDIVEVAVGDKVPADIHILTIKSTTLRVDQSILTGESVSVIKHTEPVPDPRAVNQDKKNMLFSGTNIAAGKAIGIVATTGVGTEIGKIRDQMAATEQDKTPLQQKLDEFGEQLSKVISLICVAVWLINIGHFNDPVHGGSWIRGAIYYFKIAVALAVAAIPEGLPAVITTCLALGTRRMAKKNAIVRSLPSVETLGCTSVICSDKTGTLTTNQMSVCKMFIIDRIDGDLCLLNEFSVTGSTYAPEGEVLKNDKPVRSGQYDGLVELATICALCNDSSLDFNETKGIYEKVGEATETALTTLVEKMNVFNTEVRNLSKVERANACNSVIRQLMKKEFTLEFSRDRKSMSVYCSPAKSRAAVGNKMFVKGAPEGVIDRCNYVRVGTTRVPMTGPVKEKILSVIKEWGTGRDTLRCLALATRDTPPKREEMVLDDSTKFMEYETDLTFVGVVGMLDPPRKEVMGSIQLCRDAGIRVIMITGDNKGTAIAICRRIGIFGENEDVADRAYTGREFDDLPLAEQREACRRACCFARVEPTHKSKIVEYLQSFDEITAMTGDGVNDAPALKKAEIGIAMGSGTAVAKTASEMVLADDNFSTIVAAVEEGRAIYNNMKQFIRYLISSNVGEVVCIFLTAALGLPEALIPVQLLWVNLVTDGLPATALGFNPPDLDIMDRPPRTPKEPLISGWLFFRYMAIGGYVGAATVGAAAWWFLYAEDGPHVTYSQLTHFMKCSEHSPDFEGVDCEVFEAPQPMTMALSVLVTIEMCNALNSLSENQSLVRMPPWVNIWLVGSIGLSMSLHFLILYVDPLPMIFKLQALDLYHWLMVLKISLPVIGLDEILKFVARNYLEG
The experiment in a line: Western blot rescue of R164H mutant of SERCA1 in HEK293 cells. It is filed as cell-based, bovine. Conditions: FIG. 3; HEK293, 24 hours; C 5 μM, B 10 μM, E 10 μM, F 10 μM, A 2 μM, D 10 μM; relative to wild type. On the procedure: In FIG. 3 are reported the results obtained with HEK 293 cells expressing the R164H mutant of SERCA1 treated for 24 hours with either Compound C 5 μM, Compound B 10 μM, Compound E 10 μM, compound F 10 μM, Compound A 2 μM, compound D 10 μM, MG132 (proteasome inhibitor) 10 μM, used as positive control or the vehicle DMSO at 1‰ concentration, used as negative control. At the end of treatments, cells were lysed and total protein resolved by SDS-PAGE. Western blotting analysis has been performed by using SERCA1 specific antibody and β-actin specific antibody, to normalize loaded proteins. In the upper panel of FIG. 3 is reported a representative Western blotting experiment. The expression of SERCA1 in different samples has been determined by densitometric analysis and indicated as percentage of SERCA 1 content present in wild type expressing cells treated with DMSO.
In FIG. 10 is reported the content of SERCA1 protein present in HEK 293 cells transfected with the R164H mutant of SERCA1 and treated for 24 hours with either Compound H 15 μM, Compound I 10 μM, compound Q 10 μM, Compound R 5 μM, Compound S 15 μM, Compound T 15 μM or the vehicle DMSO at 1‰ concentration, used as negative control. Cells expressing the wild type form of SERCA1 have also been used for comparison. At the end of treatments, cells were lysed and total protein resolved by SDS-PAGE. Western blotting analysis has been performed by using SERCA1 specific antibody and β-actin specific antibody, to normalize loaded proteins. The expression of SERCA1 in different samples has been determined by densitometric analysis and indicated as percentage of SERCA 1 content present in wild type expressing cells. The graph of FIG. 10 reports the average values (+/− standard error) of at least three independent experiments.

Assay [2] addresses T3, V247M mutant of alpha-sarcoglycan (Homo sapiens, UniProt Q16586, V247M).
T3 construct: expressed in transfected cells; host or cells: HEK 293
T3 sequence (Q16586 24-387 V247M): T1 sequence (Q16586 24-387 R98H) with H75R, V224M
The experiment in a line: Confocal immunofluorescence, membrane localization of V247M alpha-sarcoglycan in HEK293 cells. It is filed as cell-based. Conditions: FIG. 2; HEK293, 24 hours; E 10 μM, D 10 μM, MG132 positive control; not permeabilized cells. On the procedure:
The cellular localization of either the V247M or R98H mutants, upon corrector treatments, has been verified by confocal immunofluorescence.
In the experiment reported in FIG. 2, HEK 293 cells expressing the V247M mutant have been treated for 24 hours with either Compound E (10 μM) or Compound D (10 μM), MG132 (positive control) or DMSO at 1‰ concentration (negative control). At the end of treatments, not permeabilized cells were incubated with a monoclonal antibody specific for an extracellular epitope of α-sarcoglycan in order to mark only the membrane resident α-sarcoglycan. By comparison, cells expressing the wild type form of α-sarcoglycan have also been used.

The test system of another assay is D307H CASQ2 mutant. Conditions: CASQ2 D307H/D307H knock in mouse, systemic administration; cited from earlier work.

For the compound `O=C(Nc1ncc(C(c2ccccc2Cl)N2CC[C@@H](O)C2)s1)C1(c2ccc3c(c2)OCO3)CC1` (stereo in doubt) [Compound D, 1-(benzo[d][1,3]dioxol-5-yl)-N-(5-((S)-(2-chlorophenyl) ((R)-3-hydroxypyrrolidin-1-yl)methyl)thiazol-2-yl)cyclopropanecarboxamide], in assay [1], the “alpha-sarcoglycan protein level (western blot, densitometry), rescue of R98H mutant” value (shortened to “alpha-sarcoglycan protein level”) is recorded as “promote the rescue”. The “SERCA1 protein level (western blot, densitometry), rescue of R164H mutant” value (“SERCA1 protein level” for short) on R164H mutant of SERCA1 is “promote the rescue”. Moreover, the “plasma membrane localization of V247M alpha-sarcoglycan mutant” value in assay [2] is recorded as “promoted the correct plasma membrane localization”.

Consider `COc1ccc(S(=O)(=O)N2CCN(C(C)c3nc(OC4CCCCC4)c4ccccc4n3)CC2)cc1` (stereo not shown) [Compound B, 4-Cyclohexyloxy-2-{1-[4-(4-methoxy-benzensulfonyl)-piperazin-1-yl]-ethyl}-quinazoline], for which the “alpha-sarcoglycan protein level” value in assay [1] was “promote the rescue”. Further, the “SERCA1 protein level” value on R164H mutant of SERCA1 was “promote the rescue”.

Turning to `CC(c1nc(N2CCCCC2)c2ccccc2n1)N1CCN(S(=O)(=O)c2ccc(Cl)cc2)CC1` (stereo not shown) [Compound C, 2-{1-[4-(4-Chloro-benzensulfonyl)-piperazin-1-yl]ethyl}-4-piperidin-1-yl-quinazoline], in assay [1], the “alpha-sarcoglycan protein level” value is “promote the rescue”. At R164H mutant of SERCA1, the “SERCA1 protein level” value is listed as “promote the rescue”.

For the compound `CC(C)C[C@@H](C=O)NC(=O)[C@H](CC(C)C)NC(=O)[C@H](CC(C)C)NC(=O)OCc1ccccc1` [MG132, reference compound] (Cbz-Leu-Leu-Leu-aldehyde), the “plasma membrane localization of V247M alpha-sarcoglycan mutant” value in assay [2] is “promoted V247M membrane localization”.

For `CC(C)C[C@H](NC(=O)[C@H](Cc1ccccc1)NC(=O)c1cnccn1)B(O)O` [Velcade, bortezomib], in the assay on D307H CASQ2 mutant, the “cardiac arrhythmia developed as consequence of CASQ2 mutant degradation” value is “can be counteracted” and the “partial rescue of the mutant CASQ2, increase over not treated mice” value is recorded as 20%.
